Among the test systems are SF-268; NCI-H226; SK-MEL-28; LOX IMVI; M14; UACC-257; ACHN; SK-OV-3; SK-MEL-5; SNB-19; HCC 2998; SF-539; Malme-3M; HT-29; UACC-62; HOP-62; HL-60; A498.
Holding throughout (assay): NCI anticancer screen, dose series, 48 h

Each structure is given as a SMILES string.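 Growth conditions: 96-well plates. Treatment: test compound, 48 hours, 5 concentrations. Analysis: linear interpolation between bracketing concentrations; unreached endpoints set to highest concentration. GI50 marks 50% less growth.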 Activity calls are given as the source filed them. No stated cut-off is given here; in the data, active = GI50 up to about 1.1 µM and inactive = higher.

Regarding `Cc1cc2c(ccc3c(C)cc(=O)oc32)o1`, the GI50 in the assay with SF-268 is > 81.3 µM (inactive); in the assay with NCI-H226 it was > 100 µM (inactive); in the assay on SK-MEL-28, > 100 µM (inactive); with LOX IMVI, > 100 µM (inactive); in the assay with M14 it was > 100 µM (inactive); in the assay on UACC-257 it was > 100 µM (inactive). The GI50 in the assay on ACHN, in the assay on SK-OV-3, with SK-MEL-5, in the assay on SNB-19, with HCC 2998 and with SF-539 was > 100 µM (inactive) throughout. Moreover, the GI50 with Malme-3M, in the assay with HT-29, with UACC-62 and with HOP-62 was > 100 µM (inactive) each time.

Consider `Clc1ccc(Nc2nc3ccccc3nc2-c2cccs2)cc1Cl`, for which the GI50 with SF-268 is 36.3 µM (inactive); with NCI-H226, 34.1 µM (inactive); in the assay on SK-MEL-28, 28.7 µM (inactive); with UACC-257, 34.4 µM (inactive); in the assay with ACHN it was 32.1 µM (inactive); in the assay with SK-OV-3, > 100 µM (inactive). The GI50 is 36 µM (inactive) with SNB-19; 32.1 µM (inactive) in the assay with HCC 2998; 45.3 µM (inactive) in the assay on SF-539; > 100 µM (inactive) in the assay on Malme-3M; 12.2 µM (inactive) with HL-60; 25.3 µM (inactive) with HT-29. The GI50 in the assay on UACC-62 was 38.5 µM (inactive); in the assay with HOP-62, > 100 µM (inactive).

Regarding `NC1=NN(c2ccccc2)C(=O)C1C(=O)C(=O)Nc1ccc(Cl)c(Cl)c1` (stereo not given), the GI50 with SF-268 is > 100 µM (inactive); in the assay on NCI-H226, > 100 µM (inactive); in the assay with SK-MEL-28, > 100 µM (inactive); in the assay on M14, > 100 µM (inactive); with UACC-257, > 100 µM (inactive); with ACHN, 84.5 µM (inactive). Further, the GI50 is > 100 µM (inactive) with SK-OV-3; > 100 µM (inactive) with SK-MEL-5; 1.06 µM (active) in the assay on SNB-19; > 100 µM (inactive) in the assay with HCC 2998; > 100 µM (inactive) in the assay with SF-539; > 100 µM (inactive) with Malme-3M. Besides, the GI50 in the assay with HL-60 is 86.1 µM (inactive); in the assay on HT-29, > 100 µM (inactive); in the assay on A498, > 100 µM (inactive); in the assay on UACC-62 it was > 100 µM (inactive); in the assay on HOP-62, > 100 µM (inactive).

Consider `CCOC(=O)C1(CC)CCCCC(=O)N1` (stereo not given), for which the GI50 with SF-268, in the assay with SK-MEL-28, with LOX IMVI, in the assay with M14, in the assay on ACHN and with SK-OV-3 was > 100 µM (inactive) throughout. Also, the GI50 in the assay with HCC 2998 was > 100 µM (inactive); in the assay on Malme-3M it was > 100 µM (inactive); with HL-60, 36.2 µM (inactive); in the assay on HT-29, > 100 µM (inactive); in the assay with UACC-62, > 100 µM (inactive); with HOP-62, > 100 µM (inactive).

Take `CS(=O)(=O)OCCN1CCN(C(=O)c2ccc(Cl)c3c(Nc4ccc(S(=O)(=O)N=C(N)N)cc4)c4ccccc4nc23)CC1`: the GI50 with SF-268, in the assay on NCI-H226, in the assay on SK-MEL-28, in the assay on M14, with UACC-257 and in the assay with ACHN was > 100 µM (inactive) throughout. Further, the GI50 in the assay with SK-OV-3, in the assay with SK-MEL-5, in the assay with SNB-19, with HCC 2998, with SF-539 and with Malme-3M was > 100 µM (inactive) throughout. In addition, the GI50 in the assay on HL-60, in the assay with HT-29, with A498, with UACC-62 and in the assay on HOP-62 was > 100 µM (inactive) in each case.

For `C=Cc1ccc(C)[n+](C[Si](C)(C)O[Si](C)(C)C)c1`, the GI50 in the assay with SF-268, in the assay on NCI-H226, in the assay on SK-MEL-28, with LOX IMVI, with M14 and with UACC-257 was > 100 µM (inactive) throughout. The GI50 in the assay with ACHN, in the assay with SK-OV-3, with SK-MEL-5, in the assay with SNB-19, in the assay on HCC 2998 and with SF-539 was > 100 µM (inactive) in each case. In addition, the GI50 in the assay with Malme-3M, in the assay with HT-29, in the assay with UACC-62 and in the assay with HOP-62 was > 100 µM (inactive) each time.

As to `CCn1c2ccccc2c2ccc3c(c21)C(=O)C=CC3=O`, the GI50 with SF-268 was 19.9 µM (inactive); with NCI-H226, 18 µM (inactive); in the assay on SK-MEL-28, 18.3 µM (inactive); in the assay on M14, 3.93 µM (inactive); with UACC-257 it was 14.6 µM (inactive); in the assay on ACHN, 16.5 µM (inactive). In addition, the GI50 with SK-OV-3 was 18.6 µM (inactive); in the assay on SK-MEL-5 it was < 0.01 µM (active); with HCC 2998 it was 20.9 µM (inactive); in the assay on SF-539 it was 26.2 µM (inactive); in the assay with Malme-3M, 9.86 µM (inactive); in the assay on HL-60, 2.43 µM (inactive). In addition, the GI50 in the assay with HT-29 was 21 µM (inactive); in the assay on HOP-62 it was 7.52 µM (inactive).

For the compound `CC1(c2ccccc2)CC(c2cccc([N+](=O)[O-])c2)=NO1` (stereo not given), the GI50 in the assay on SF-268, with NCI-H226, in the assay with SK-MEL-28, with M14, in the assay on UACC-257 and with ACHN was > 100 µM (inactive) throughout. Besides, the GI50 in the assay with SK-OV-3 is > 100 µM (inactive); with SK-MEL-5, 56.2 µM (inactive); in the assay on HCC 2998, > 100 µM (inactive); with SF-539 it was > 100 µM (inactive); with Malme-3M, > 100 µM (inactive); with HT-29, 73.1 µM (inactive). In addition, the GI50 in the assay with A498 and in the assay with HOP-62 was > 100 µM (inactive) throughout.

Turning to `CCN(CC)Cc1cc(Nc2ccnc3ccc4nn(C)nc4c23)ccc1O`, the GI50 in the assay on SF-268 is 13.6 µM (inactive); with NCI-H226 it was 22.5 µM (inactive); in the assay on SK-MEL-28, 14 µM (inactive); in the assay with LOX IMVI, 7.73 µM (inactive); in the assay with M14, 14.3 µM (inactive); in the assay with UACC-257 it was 13.9 µM (inactive). Besides, the GI50 with ACHN is 9.25 µM (inactive); with SK-OV-3, 18.5 µM (inactive); in the assay with SK-MEL-5, 16.3 µM (inactive); in the assay with SNB-19 it was 28 µM (inactive); in the assay with HCC 2998 it was 13.3 µM (inactive); in the assay with SF-539, 13.6 µM (inactive). In addition, the GI50 in the assay with Malme-3M was 16.9 µM (inactive); in the assay on HL-60, 84.9 µM (inactive); in the assay on HT-29, 4.7 µM (inactive); in the assay with UACC-62 it was 13.7 µM (inactive); with HOP-62 it was 16.9 µM (inactive).

For the compound `C=CCC1C(=O)CC2(C)C(CC=C)C(=O)CC12C` (stereo not given), the GI50 in the assay with NCI-H226, with SK-MEL-28, in the assay on LOX IMVI, with M14, in the assay with UACC-257 and in the assay with ACHN was > 100 µM (inactive) each time. The GI50 in the assay with SK-OV-3, with SK-MEL-5, in the assay with SNB-19, in the assay with HCC 2998, in the assay with SF-539 and with Malme-3M was > 100 µM (inactive) in each case. Moreover, the GI50 with HL-60, in the assay with HT-29, with UACC-62 and in the assay on HOP-62 was > 100 µM (inactive) each time.

On to `Cc1c(O)c(=O)ccn1C1OC(CO)C(O)C1O` (stereo not given), for which the GI50 in the assay on SF-268 is > 100 µM (inactive); in the assay with NCI-H226 it was > 100 µM (inactive); with SK-MEL-28, > 100 µM (inactive); in the assay on LOX IMVI it was 56.2 µM (inactive); in the assay with M14, > 100 µM (inactive); with UACC-257 it was > 100 µM (inactive). Further, the GI50 in the assay with ACHN was > 100 µM (inactive); with SK-OV-3 it was > 100 µM (inactive); with SK-MEL-5, > 100 µM (inactive); in the assay on SNB-19, > 100 µM (inactive); in the assay with Malme-3M, > 100 µM (inactive); in the assay with HL-60, 17.4 µM (inactive). Moreover, the GI50 with HT-29 was > 100 µM (inactive); with A498 it was > 100 µM (inactive); with UACC-62, 96.2 µM (inactive); in the assay with HOP-62, > 100 µM (inactive).

`Cn1c2c(c3ccccc31)CCN(CCN1CCN(c3cccc(Cl)c3)CC1)C2=O`: the GI50 is > 100 µM (inactive) in the assay with SF-268; > 100 µM (inactive) in the assay with SK-MEL-28; 57.9 µM (inactive) with LOX IMVI; 46 µM (inactive) in the assay with M14; > 100 µM (inactive) in the assay on ACHN; > 100 µM (inactive) in the assay on SK-OV-3. For the same compound, the GI50 in the assay on SK-MEL-5 was 23.6 µM (inactive); in the assay with SF-539, > 100 µM (inactive); in the assay with HL-60, 15.9 µM (inactive); in the assay with HT-29, 18.2 µM (inactive); in the assay on A498, > 100 µM (inactive); in the assay with UACC-62, 72.9 µM (inactive). For the same compound, the GI50 in the assay with HOP-62 is > 100 µM (inactive).

As for `COc1ccc2ccnc(Cc3ccc(OCc4ccccc4)c(OC)c3)c2c1`, the GI50 in the assay on SF-268 was 22.1 µM (inactive); in the assay with SK-MEL-28 it was 16.7 µM (inactive); with M14, 18 µM (inactive); with UACC-257 it was 20.8 µM (inactive); in the assay on ACHN, 23.6 µM (inactive); with SK-MEL-5 it was 15.1 µM (inactive). The GI50 in the assay with SNB-19 was 85.9 µM (inactive); in the assay with HCC 2998, 19.3 µM (inactive); in the assay on SF-539, 17.2 µM (inactive); in the assay with Malme-3M, 16.9 µM (inactive); in the assay with HT-29, 27.8 µM (inactive); in the assay with A498, 21.8 µM (inactive). Further, the GI50 in the assay with HOP-62 is 15.8 µM (inactive).

These data come from ChEMBL document CHEMBL1201862, “PubChem BioAssay data set” (2004).
